Two molecules from PMC6458995, “MAP4K4 Inhibition Promotes Survival of Human Stem Cell-Derived Cardiomyocytes and Reduces Infarct Size In Vivo” (Cell Stem Cell, 2019) can be followed below.

In one data set the target is MINK1/MAP4K6 (Homo sapiens, UniProt Q8N4C8). Kind of data set: HTRF Transcreener ADP kinase assay. Format: biochemical. The method, then: (§1) In the detection step, endogenous ADP and d2-labeled ADP compete for binding an anti-ADP monoclonal antibody labeled with Eu^3+ cryptate. A ratiometric fluorescent readout is used at 665 and 620 nm. […] Assays were run in Greiner low volume plates with a final reaction volume of 10 μl. […] Data were either reported as % inhibition at a single dose or as pIC50 values derived from dose response curves (pIC50 = -log[IC50]). Kinase selectivity profiling was performed by the International Centre for Kinase Profiling, MRC Protein Phosphorylation and Ubiquitylation Unit (141 kinases; Premier Screen, http://www.kinase-screen.mrc.ac.uk), using a [γ-^33P]ATP filter binding assay ([Bain et al., 2007]). Compounds were screened at 1 μM. For key hits, pIC50 values were then determined by HTRF as above. […] Stability in mouse and human liver microsomes was determined by Cyprotex.
Chain of MINK1/MAP4K6 (Q8N4C8 whole entry): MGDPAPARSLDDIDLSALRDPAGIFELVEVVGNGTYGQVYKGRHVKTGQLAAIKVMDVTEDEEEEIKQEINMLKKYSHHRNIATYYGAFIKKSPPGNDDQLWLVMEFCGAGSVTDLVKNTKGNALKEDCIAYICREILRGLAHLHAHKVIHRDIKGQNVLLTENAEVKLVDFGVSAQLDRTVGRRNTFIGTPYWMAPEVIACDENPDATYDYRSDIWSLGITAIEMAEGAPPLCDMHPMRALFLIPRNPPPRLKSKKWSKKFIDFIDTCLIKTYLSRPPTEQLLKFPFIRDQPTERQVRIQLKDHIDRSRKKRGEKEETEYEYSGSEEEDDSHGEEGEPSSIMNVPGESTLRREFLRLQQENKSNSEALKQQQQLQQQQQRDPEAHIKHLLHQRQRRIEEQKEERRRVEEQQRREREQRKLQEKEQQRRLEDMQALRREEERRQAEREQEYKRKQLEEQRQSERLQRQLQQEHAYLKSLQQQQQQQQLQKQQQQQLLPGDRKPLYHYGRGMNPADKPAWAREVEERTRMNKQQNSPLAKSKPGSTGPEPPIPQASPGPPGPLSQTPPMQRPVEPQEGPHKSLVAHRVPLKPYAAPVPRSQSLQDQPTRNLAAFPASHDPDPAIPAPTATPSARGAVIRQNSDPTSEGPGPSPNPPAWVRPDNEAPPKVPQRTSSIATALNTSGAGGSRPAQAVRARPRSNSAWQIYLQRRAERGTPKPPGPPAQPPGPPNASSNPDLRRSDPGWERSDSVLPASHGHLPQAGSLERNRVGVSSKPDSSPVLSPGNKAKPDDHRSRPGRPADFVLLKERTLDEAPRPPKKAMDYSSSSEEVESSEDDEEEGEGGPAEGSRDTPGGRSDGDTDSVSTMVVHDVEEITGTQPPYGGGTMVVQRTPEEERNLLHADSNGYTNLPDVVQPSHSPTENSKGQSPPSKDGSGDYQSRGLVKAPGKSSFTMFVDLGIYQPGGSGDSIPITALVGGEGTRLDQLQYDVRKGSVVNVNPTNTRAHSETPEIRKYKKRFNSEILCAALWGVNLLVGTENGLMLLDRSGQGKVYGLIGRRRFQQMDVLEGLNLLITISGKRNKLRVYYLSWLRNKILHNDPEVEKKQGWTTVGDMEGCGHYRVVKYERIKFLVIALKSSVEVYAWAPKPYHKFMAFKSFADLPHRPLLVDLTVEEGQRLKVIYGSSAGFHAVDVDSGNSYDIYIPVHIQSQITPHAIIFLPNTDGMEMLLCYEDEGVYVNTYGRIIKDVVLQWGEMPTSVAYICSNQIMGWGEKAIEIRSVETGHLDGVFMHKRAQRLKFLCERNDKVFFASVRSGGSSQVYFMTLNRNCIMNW
In general terms: TR-FRET usually uses a lanthanide donor and a delayed reading to cut background.

The next data set deals with TNIK/MAP4K7 (Homo sapiens, UniProt Q9UKE5). Kind of data set: HTRF Transcreener ADP kinase assay. Format: biochemical. The method, then:
as §1

The test system of another data set is vCor.4U cardiomyocytes. Put plainly: CellTiter-Glo viability after oxidative stress (H2O2 or menadione). To be noted: for protection from death signal (CellTiter-Glo): vCor.4U, 10 μM compound, up to 200 μM H2O2 or 45 μM menadione. Format: cell-based, human. The method, then:
vCor.4U cardiomyocytes were cultured, except where noted, on white (viability) or black (FLIPR) clear-bottom 384-well plates, treated for 1 hr with […] fibronectin (Sigma-Aldrich). To minimize batch to batch variation, thawed cells first were transferred from cryo-vials into sterile 250 mL flasks containing pre-warmed vCor.4U maintenance medium, for 3-5 d. The cells were then plated at 1000 well^-1 for viability assays or 5000 cells well^-1 for FLIPR experiments, all in 40 μl well^-1 of the maintenance medium. Cells were cultured in Axiogenesis complete medium followed by incomplete medium, were subjected to oxidative stress ± test compounds on day 3, and were assayed on day 4 (Figures 4D and 4E). Alternatively, complete medium was replaced on day 2 of culture with 40 μl of DMEM high Glucose (no FCS or pyruvate), followed by removal and replacement of 20 μl every 2 d for 10 d (Figures 4A–4C).
H2O2, menadione (Sigma-Aldrich), doxorubicin (Calbiochem), and C2-ceramide (N-acetyl-D-sphingosine) were used at the indicated concentrations. MAP4K4 inhibitors were serially diluted in DMSO, transferred to an intermediate plate using assay medium as a diluting agent, and added at a final concentration of 0.1% DMSO. MAP4K4 inhibitors were added to cultured cardiomyocytes 1 hr before the cell death inducers, except where noted, and remained present for the duration of the experiment.
For cell-based dose-response experiments, MAP4K4 inhibitors were prepared in 96-well polypropylene plates as serial dilutions in DMSO of 10 mM stock solutions. To a sterile 96-well intermediate plate, 1 μl of each well was added to 99 μl of medium, the samples were mixed, and 5 μl well^-1 from the intermediate plate were transferred to the cultured cells (final concentration, 0.1% DMSO; final top concentration of inhibitor, 10 μM). Assay plates were gently centrifuged then incubated for 1 hr at 37°C. The death triggers menadione, H2O2 and doxorubicin were prepared fresh on the day of treatment at 10x the final concentrations and 5 μl well^-1 were added as appropriate. Assay plates were gently centrifuged and then incubated at 37°C for the duration of treatment.
Assay plates were removed from the incubator, allowed to reach room temperature, inoculated with 20 μl well^-1 CTG reagent (Promega), and gently agitated for 30 min. Prior to adding CTG, 2 μl well^-1 of the culture medium was removed and placed into a white 384-well low volume plate for measurement of cardiac troponin release by AlphaLISA (below). Luminescence due to ATP, proportional to cell number, was captured on a PHERAstar Plus microplate reader (BMG Labtech). Normalized values were plotted against the log concentration of death signal or inhibitor, and a 4-parameter fit was used to identify IC50 and EC50, respectively.

The next data set has as its system iCell cardiomyocytes. Kind of data set: CellTiter-Glo protection from 400 μM H2O2. Type of data set: cell-based. To be noted: Homo sapiens, Cardiomyocyte, read-out: EC50 in iCell cardiomyocytes (protecting hiPSC-CMs). The method, then:
iCell cardiomyocytes were thawed, transferred to Plating Medium, counted using a Vi-CELL XR cell viability analyzer (Beckman Coulter), and seeded into 24-well plates for RNA collection (60,000 cells well^-1; Greiner) or μClear half-area 96-well plates for gene silencing (10,000 cells well^-1; Greiner). Plates were coated with 10 μg ml^-1 collagen type I (BD Biosciences). Cells were cultured in iCell Cardiomyocytes Plating Medium for 2 d and in Maintenance Medium thereafter. For compound dose-response comparisons, the cells were deposited in Plating Medium at 10,000 cells well^-1 in 0.1% (w/v) gelatin-coated 384-well white Greiner plates and were cultured as above for 8 d before treatment.
For cell-based dose-response experiments, MAP4K4 inhibitors were prepared in 96-well polypropylene plates as serial dilutions in DMSO of 10 mM stock solutions. […]
Assay plates were removed from the incubator, allowed to reach room temperature, inoculated with 20 μl well^-1 CTG reagent (Promega), and gently agitated for 30 min. […] Luminescence due to ATP, proportional to cell number, was captured on a PHERAstar Plus microplate reader (BMG Labtech). […]
Background: Cellular ATP, detected with luciferase, serves as a proxy for viable cell number.

The next data set is described as follows: Oral PK. Format: in vivo, female CD-1 mice. To be noted: for AUC(0-inf) / Cmax / Tmax / half-life: female, CD-1, mouse, mice, plasma. The method, then:
In vivo pharmacokinetic profiling was performed in female CD-1 mice, using 3 animals per time point. First, 30% w/v Kleptose as excipient was dissolved in water and vortexed gently for several min. Next, 30 mg of the test compound was dissolved into 0.6 mL of DMSO, for a concentration of 50 mg ml^-1, and 4.5 mL of the Kleptose solution was added to 0.5 mL of the test compound solution. A precipitate forms, which re-dissolves over 2-5 min, leaving a clear or slightly hazy solution with a final concentration of 5 mg ml^-1. The dosing solution is used as soon as practicable, vortexing immediately prior to use. This amount was sufficient formulation for 25 doses of 200 μL (20 g mouse). Compounds were administered orally at 50 mg kg^-1, with terminal blood (plasma) sampling at 10 min, 30 min, 1 h, 2.5 h, 5 h, 10 h, and 20 h.

Chain of TNIK/MAP4K7 (Q9UKE5 whole entry): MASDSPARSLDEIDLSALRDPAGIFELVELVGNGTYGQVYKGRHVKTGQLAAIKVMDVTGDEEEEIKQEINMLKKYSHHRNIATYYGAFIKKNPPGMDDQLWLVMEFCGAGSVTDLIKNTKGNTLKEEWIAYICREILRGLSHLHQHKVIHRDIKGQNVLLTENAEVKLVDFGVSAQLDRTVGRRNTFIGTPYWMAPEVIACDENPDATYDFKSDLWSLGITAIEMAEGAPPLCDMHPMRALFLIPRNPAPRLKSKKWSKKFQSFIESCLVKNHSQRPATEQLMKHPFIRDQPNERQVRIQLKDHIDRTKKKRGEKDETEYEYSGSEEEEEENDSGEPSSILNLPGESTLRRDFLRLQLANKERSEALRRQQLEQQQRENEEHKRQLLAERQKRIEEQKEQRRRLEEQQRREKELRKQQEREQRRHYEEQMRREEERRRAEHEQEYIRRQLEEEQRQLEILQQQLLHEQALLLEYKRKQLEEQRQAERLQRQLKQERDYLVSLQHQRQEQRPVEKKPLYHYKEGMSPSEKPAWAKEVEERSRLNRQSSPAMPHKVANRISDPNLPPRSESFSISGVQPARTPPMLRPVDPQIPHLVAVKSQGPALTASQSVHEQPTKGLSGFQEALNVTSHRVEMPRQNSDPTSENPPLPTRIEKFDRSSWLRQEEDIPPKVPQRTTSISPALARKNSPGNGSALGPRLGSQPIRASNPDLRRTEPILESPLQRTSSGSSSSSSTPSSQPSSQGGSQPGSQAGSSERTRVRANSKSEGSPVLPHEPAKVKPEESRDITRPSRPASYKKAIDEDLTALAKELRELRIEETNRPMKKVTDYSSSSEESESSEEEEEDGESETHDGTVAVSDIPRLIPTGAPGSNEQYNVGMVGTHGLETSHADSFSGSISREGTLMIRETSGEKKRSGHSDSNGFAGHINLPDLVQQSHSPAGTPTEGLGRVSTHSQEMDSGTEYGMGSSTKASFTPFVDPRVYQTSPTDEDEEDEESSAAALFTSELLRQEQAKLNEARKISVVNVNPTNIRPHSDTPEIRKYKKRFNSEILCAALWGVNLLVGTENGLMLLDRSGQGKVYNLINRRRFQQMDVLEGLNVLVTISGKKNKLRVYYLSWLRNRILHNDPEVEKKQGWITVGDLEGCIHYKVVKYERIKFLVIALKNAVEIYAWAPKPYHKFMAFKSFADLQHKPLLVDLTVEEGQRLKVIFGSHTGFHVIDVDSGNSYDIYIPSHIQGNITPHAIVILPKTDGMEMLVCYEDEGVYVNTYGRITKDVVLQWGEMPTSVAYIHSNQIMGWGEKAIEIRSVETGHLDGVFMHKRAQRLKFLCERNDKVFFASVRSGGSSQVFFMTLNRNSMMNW

Broadly, the IC50 is the point on the concentration scale where inhibition reaches its midpoint. Read a high IC50 as a need for much substance. For orientation: EC50 means the concentration that produces a half-maximal response. By AUC(0-inf) is commonly meant the area under the concentration-time curve extrapolated to infinity. High values mean more exposure, low ones less exposure. In general, Cmax refers to the highest concentration seen after dosing. Broadly, the Tmax is the time from dosing to the highest level. By half-life is commonly meant the time needed for the level to fall by half in the phase considered. A low value points to rapid decline. `Oc1ncnc2c1c(-c1ccccc1)cn2-c1ccccc1` [F1386-0303, 5,7-diphenyl-7H-pyrrolo[2,3-d]pyrimidin-4-ol] gave an IC50 against MINK1/MAP4K6 of 0.038 µM. Besides, half-maximal inhibition against TNIK/MAP4K7 (IC50) required 0.0933 µM. In addition, the “protection from death signal (CellTiter-Glo)” value with vCor.4U cardiomyocytes was “virtually complete”. Further, the EC50 in the data set with iCell cardiomyocytes is 5 µM. Besides, in “Oral PK” (Oral PK (50 mg kg^−1)), the AUC(0-inf) came out at 2.16 µM·h, the concentration peaked (Cmax) at 0.295 µM, the Tmax is 1 h and the half-life is 3.7 h.
Consider `COCCOc1ccc(-c2cn(-c3ccccc3)c3nc[nH]c(=O)c23)cc1` [DMX-5804, 5-[4-(2-methoxy-ethoxy)-phenyl]-7-phenyl-3,7-dihydro-pyrrolo[2,3-d]pyrimidin-4-one], for which, on MINK1/MAP4K6, the IC50 is 0.00661 µM. Also, the IC50 against TNIK/MAP4K7 is 0.011 µM. For the same molecule, the “protection if given 1 h after oxidative stress” value with vCor.4U cardiomyocytes (400 μM H2O2, CellTiter-Glo) is recorded as “partial protection”. Moreover, the “protection from death signal (CellTiter-Glo)” value with vCor.4U cardiomyocytes is given as “substantiated”. The EC50 in the data set on iCell cardiomyocytes was 0.5 µM. For the same molecule, in “Oral PK” (50 mg kg^−1 oral dose, versus F1386-0303), the “improvement of free plasma concentration over the initial inhibitor” value was “more than 80 fold”. Besides, in the data set “Oral PK” (Oral PK (50 mg kg^−1)), the AUC(0-inf) was 63.7 µM·h, the peak level (Cmax) was 13.8 µM, the Tmax came to 1 h and the half-life was 1.8 h. In the data set “Oral PK” (ratio, Oral PK (50 mg kg^−1)), the “AUCinf, DMX-5804 versus F1386-0303” value came to 29.48; the “Cmax, DMX-5804 versus F1386-0303” value is given as 46.94; the “Tmax, DMX-5804 versus F1386-0303” value stood at 1.00; the “t1/2, DMX-5804 versus F1386-0303” value is reported as 0.49.
